Assay results from patent US9023789B2, “Amylin analogs and pharmaceutical compositions thereof” (Novo Nordisk A/S, priority 2012, dated 2015).
Read-outs that look alike come from different tables or passages of the source. Numbered stars: 1 amine (or outer) side, 2 acyl side, 3 side chain; on linkers, the order of the positions; unused ones are H or OH. Bridge positions count the residues as written; N and C are the ends. Peptide text beside a SMILES is read from it. * marks the point of attachment. C20 diacid = O=C(O)CCCCCCCCCCCCCCCCCCC(=O)*; γGlu = O=C(O)[C@H](CCC(=O)[*:2])N[*:1]

Legend:
[1] = target: T1, human amylin 3(a) receptor (human calcitonin receptor + RAMP-3) in BHK570 cells (Homo sapiens, UniProt O60896+P30988); assay: ASSAY (II)a functional assay, human amylin receptor (CRE luciferase); type: cell-based
T1 construct: expressed in transfected cells
Excerpt: 1. Luciferase Assay Outline
Activation of calcitonin and amylin (coexpression of calcitonin receptor and receptor activity modifying proteins (RAMP)) receptors lead to increased intracellular concentrations of cAMP. Consequently, transcription is activated by promoters containing multiple copies of the cAMP response element (CRE). It is thus possible to measure amylin activity by the use of a CRE luciferase reporter gene introduced into BHK cells also expressing calcitonin or amylin receptors.
2. Construction of Calcitonin (a)- and Amylin 3(a)-Receptor/CRE-Luc Cell Line.
The cell line was further transfected with RAMP-3, using standard methods. This turns the calcitonin receptor into an amylin 3(a) receptor. Methotrexate, Neomycin, and Hygromycin are selection markers for luciferase, the calcitonin receptor, and RAMP-3, respectively.
To perform activity assays, BHK calcitonin (a) receptor- or amylin 3(a)-receptor/CRE-luc cells were seeded in white 96 well culture plates at a density of about 20.000 cells/well. […] After incubation overnight at 37° C. and 5% CO2, the growth medium was replaced by 50 μl/well assay medium (DMEM (without phenol red), Glutamax™, 10% FBS, and 10 mM Hepes, pH 7.4). Further, 50 μl/well of standard or sample in assay buffer were added. After 3 hours incubation at 37° C. and 5% CO2, the assay medium with standard or sample were removed and replaced by 100 μl/well PBS. Further, 100 μl/well LucLite™ was added. The plates were sealed and incubated at room temperature for 30 minutes. Finally, luminescence was measured on a TopCounter (Packard) in SPC (single photon counting) mode.

[2] = ASSAY (III) ThT fibrillation assay for physical stability; type: physicochemical
Excerpt: Assay (III)—ThT Fibrillation Assays for the Assessment of Physical Stability of Protein Formulations Low physical stability of a polypeptide may lead to amyloid fibril formation, which is observed as well-ordered, thread-like macromolecular structures in the sample eventually resulting in gel formation. This has traditionally been measured by visual inspection of the sample. However, that kind of measurement is very subjective and depending on the observer. Therefore, the application of a small molecule indicator probe is much more advantageous. Thioflavin T (ThT) is such a probe and has a distinct fluorescence signature when binding to fibrils [Naiki et al. (1989) Anal. […] LeVine (1999) Methods. Enzymol. […], 274-284]. The time course for fibril formation can be described by a sigmoidal curve with the following expression [Nielsen et al. (2001) Biochemistry 40, 6036-6046]; […] Here, F is the ThT fluorescence at the time t. The constant t0 is the time needed to reach 50% of maximum fluorescence. […] Few of those intermediates nucleate to form a template onto which further intermediates may assembly and the fibrillation proceeds. The lag-time corresponds to the interval in which the critical mass of nucleus is built up and the apparent rate constant is the rate with which the fibril itself is formed. Sample Preparation Samples were prepared freshly before each assay. Each sample composition is described in each example. The pH of the sample was adjusted to the desired value using appropriate amounts of concentrated NaOH and HClO4 or HCl. Thioflavin T was added to the samples from a stock solution in H2O to a final concentration of 1 μM. Sample aliquots of 200 μl were placed in a 96 well microtiter plate (Packard OptiPlate™96, white polystyrene). Usually, four or eight replica of each sample (corresponding to one test condition) were placed in one column of wells. The plate was sealed with Scotch Pad (Qiagen). Incubation and Fluorescence Measurement Incubation at given temperature, shaking and measurement of the ThT fluorescence emission were done in a Fluoroskan Ascent FL fluorescence platereader or Varioskan platereader (Thermo Labsystems). The temperature was adjusted to 37° C. The orbital shaking was adjusted to 960 rpm with an amplitude of 1 mm in all the presented data. Fluorescence measurement was done using excitation through a 444 nm filter and measurement of emission through a 485 nm filter. Each run was initiated by incubating the plate at the assay temperature for 10 min. The plate was measured every 20 minutes for a desired period of time. Between each measurement, the plate was shaken and heated as described. Data Handling The measurement points were saved in Microsoft Excel format for further processing and curve drawing and fitting was performed using GraphPad Prism. The background emission from ThT in the absence of fibrils was negligible. The data points are typically a mean of four or eight samples and shown with standard deviation error bars. Only data obtained in the same experiment (i.e. samples on the same plate) are presented in the same graph ensuring a relative measure of fibrillation between experiments. The data set may be fitted to Eq. […] However, since full sigmodial curves in this case are not always achieved during the measurement time, the degree of fibrillation is expressed as ThT fluorescence tabulated as the mean of the samples and shown with the standard deviation at various time points. Measurement of Initial and Final Concentrations The polypeptide concentration in each of the tested formulations were measured both before application in the ThT fibrillation assay (“Initial”) and after completion of the ThT fibrillation (“After ThT assay”). Concentrations were determined by reverse HPLC methods using a pramlintide standard as a reference. Before measurement after completion 150 μl was collected from each of the replica and transferred to an Eppendorf tube. These were centrifuged at 30000 G for 40 mins. […]

[3] = target: T2, human amylin receptor (membranes from Amylin 3(a)/CRE-luc cells) (Homo sapiens, UniProt O60896+P30988); assay: ASSAY (V) binding to the human amylin receptor (SPA, 125I-rat amylin);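 note: competition binding of cell membranes (35 ng/µL) mixed with SPA beads in 384-well plates at 40 µL total volume, read by scintillation counting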
T2 construct: expressed in transfected cells
T2 sequence (P30988 25-474): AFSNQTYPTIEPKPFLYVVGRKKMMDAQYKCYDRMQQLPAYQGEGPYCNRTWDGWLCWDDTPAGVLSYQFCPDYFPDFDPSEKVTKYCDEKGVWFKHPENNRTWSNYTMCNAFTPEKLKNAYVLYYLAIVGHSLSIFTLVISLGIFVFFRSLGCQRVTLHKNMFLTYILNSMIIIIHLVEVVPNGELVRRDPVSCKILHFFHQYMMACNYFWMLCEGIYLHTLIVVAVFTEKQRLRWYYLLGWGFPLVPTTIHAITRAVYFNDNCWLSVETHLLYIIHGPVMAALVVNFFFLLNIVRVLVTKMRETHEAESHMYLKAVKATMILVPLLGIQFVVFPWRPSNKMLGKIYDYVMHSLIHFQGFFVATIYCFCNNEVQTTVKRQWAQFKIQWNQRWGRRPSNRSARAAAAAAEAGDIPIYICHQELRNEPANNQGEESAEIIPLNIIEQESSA
T2 sequence (O60896 24-148 partner): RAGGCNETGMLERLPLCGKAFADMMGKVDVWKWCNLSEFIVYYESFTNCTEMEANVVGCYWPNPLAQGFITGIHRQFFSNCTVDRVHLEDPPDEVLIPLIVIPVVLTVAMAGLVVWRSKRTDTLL

[4] = ASSAY (IV) determination of solubility; type: physicochemical
Protocol: Assay (IV)—Determination of Solubility
The polypeptide was dissolved in water at −500 nmol/ml and mixed 1:1 with a series of buffers (100 mM glycylglycine pH 3.0, 100 mM glycylglycine pH 4.0, 100 mM glycylglycine pH 5.0, 100 mM bistrispropane pH 6.0, 100 mM bistrispropane pH 6.5, 100 mM bistrispropane pH 7.0, 100 mM bistrispropane pH 7.5, 100 mM bistrispropane pH 8.0). After 18 hours at room temperature the samples were centrifuged and the polypeptide concentration determined by UPLC.

rat calcitonin receptor = target: T3, rat calcitonin receptor (Rattus norvegicus, UniProt P32214); assay: ASSAY (VIII) binding to the rat calcitonin receptor; details: Table 7, read-out: rCTR bind IC50
T3 construct: expressed in transfected cells; host or cells: BHK tk'ts 13 (transient, FuGENE 6), membranes
T3 sequence (P32214 25-479 isoform P32214-2 limits assumed): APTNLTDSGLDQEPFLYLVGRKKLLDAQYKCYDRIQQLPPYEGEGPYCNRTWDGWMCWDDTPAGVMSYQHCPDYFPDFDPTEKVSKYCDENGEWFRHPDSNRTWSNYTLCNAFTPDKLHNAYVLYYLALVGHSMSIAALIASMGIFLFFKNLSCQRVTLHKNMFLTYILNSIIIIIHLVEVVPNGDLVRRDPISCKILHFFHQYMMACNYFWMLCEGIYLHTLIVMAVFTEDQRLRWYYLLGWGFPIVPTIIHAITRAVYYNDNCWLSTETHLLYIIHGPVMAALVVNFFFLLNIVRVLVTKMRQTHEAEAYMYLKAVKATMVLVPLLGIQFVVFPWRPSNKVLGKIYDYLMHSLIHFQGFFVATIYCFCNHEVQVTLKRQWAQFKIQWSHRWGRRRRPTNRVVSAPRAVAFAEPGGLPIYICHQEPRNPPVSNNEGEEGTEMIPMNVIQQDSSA
Protocol: Assay (VIII)—Determination of Binding to the Rat Calcitonin Receptor
The BHK tk′ts 13 cells were transiently transfected with rat calcitonin receptor using FuGENE® 6 (Roche), according to the manufacturer's recommendations. Cells were grown in DMEM with 10% FBS and 1% Pen/Strep. Approximately 48 hours after transfection, the cells were harvested and membranes were prepared.

[5] = bistrispropane buffer, pH 6.5, read-out: Solubility pH 6.5 Concentration
[6] = bistrispropane buffer, pH 7.5, read-out: Solubility pH 7.5 Concentration
[7] = bistrispropane buffer, pH 6.0, read-out: Solubility pH 6.0 Concentration
[8] = bistrispropane buffer, pH 7.0, read-out: Solubility pH 7.0 Concentration
[9] = bistrispropane buffer, pH 8.0, read-out: Solubility pH 8.0 Concentration
[10] = glycylglycine buffer, pH 3.0, read-out: Solubility pH 3.0 Concentration
[11] = glycylglycine buffer, pH 4.0, read-out: Solubility pH 4.0 Concentration
[12] = glycylglycine buffer, pH 5.0, read-out: Solubility pH 5.0 Concentration

Row | SMILES | Ratio hCT/hAmylin funct. ([1]; hCTR funct. EC50 / hAmylin-R funct. EC50) | Ratio hCT/hAmylin funct. ([1]; hCTR funct. EC50 divided by hAmylin-R funct. EC50) | Ratio hCT/hAmylin funct. ([1]; hCTR funct. EC50 over hAmylin-R funct. EC50) | Ratio hCT/hAmylin funct. ([1]; human functional selectivity: hCTR funct. EC50 / hAmylin-R funct. EC50) | ThT pH 4.0 lag time (h) [2] | Ratio hCT/hAmylin binding ([3]; Table 5, selectivity, hCTR bind IC50 / hAmylin-R bind IC50) | Ratio hCT/hAmylin binding ([3]; Table 7, human binding selectivity, included for comparison) | solubility at 18 h [4, 5] | solubility at 18 h [4, 6] | solubility at 18 h [4, 7] | solubility at 18 h [4, 8] | solubility at 18 h [4, 9] | solubility at 18 h [4, 10] | solubility at 18 h [4, 11] | solubility at 18 h [4, 12] | IC50 (rat calcitonin receptor)
1 | CC[C@H](C)[C@H](NC(=O)[C@H](C)NC(=O)CNC(=O)[C@H](Cc1ccccc1)NC(=O)[C@H](CC(N)=O)NC(=O)[C@@H]1CCCN1C(=O)[C@H](CO)NC(=O)[C@H](CO)NC(=O)[C@H](Cc1c[nH]cn1)NC(=O)[C@H](CCCNC(=N)N)NC(=O)[C@H](CC(C)C)NC(=O)[C@H](Cc1ccccc1)NC(=O)[C@H](CCC(=O)O)NC(=O)[C@H](C)NC(=O)[C@H](CC(C)C)NC(=O)[C@H](CCCNC(=N)N)NC(=O)[C@H](CCC(N)=O)NC(=O)[C@@H](NC(=O)[C@H](C)NC(=O)[C@@H]1CSSC[C@H](NC(=O)[C@H](CCCCN)NC(=O)CC[C@H](NC(=O)CC[C@H](NC(=O)CCCCCCCCCCCCCCCCCCC(=O)O)C(=O)O)C(=O)O)C(=O)N[C@@H](CC(N)=O)C(=O)N[C@@H]([C@@H](C)O)C(=O)N[C@@H](C)C(=O)N[C@@H]([C@@H](C)O)C(=O)N1)[C@@H](C)O)C(=O)N1CCC[C@H]1C(=O)N[C@@H](CO)C(=O)N[C@@H](CO)C(=O)N[C@H](C(=O)N[C@@H](CC(N)=O)C(=O)N[C@H](C(=O)NCC(=O)N[C@@H](CO)C(=O)N[C@@H](CC(N)=O)C(=O)N[C@H](C(=O)N1CCC[C@H]1C(N)=O)[C@@H](C)O)C(C)C)[C@@H](C)O [Example 14] ({C20 diacid-γGlu-γGlu}-KCNTATCATQRLAEFLRHSSPNFGAIPSSTNVGSNTP-NH2; disulfide 2-7) | 1.6 | 1.6 | 1.6 | 1.6 | 45 h | 2.2 | 2.2 | ≥ 200 µM | ≥ 200 µM | ≥ 200 µM | ≥ 200 µM | ≥ 200 µM | ≥ 200 µM | ≥ 200 µM | ≥ 200 µM | –
2 | CC[C@H](C)[C@H](NC(=O)[C@H](C)NC(=O)CNC(=O)[C@H](Cc1ccccc1)NC(=O)[C@H](CC(N)=O)NC(=O)[C@@H]1CCCN1C(=O)[C@H](CO)NC(=O)[C@H](CO)NC(=O)[C@H](Cc1c[nH]cn1)NC(=O)[C@H](CCCNC(=N)N)NC(=O)[C@H](CC(C)C)NC(=O)[C@H](Cc1ccccc1)NC(=O)[C@H](CC(=O)O)NC(=O)[C@H](C)NC(=O)[C@H](CC(C)C)NC(=O)[C@H](CCCNC(=N)N)NC(=O)[C@H](CCC(N)=O)NC(=O)[C@@H](NC(=O)[C@H](C)NC(=O)[C@@H]1CSSC[C@H](NC(=O)[C@@H](N)CCCCN)C(=O)N[C@@H](CC(N)=O)C(=O)N[C@@H]([C@@H](C)O)C(=O)N[C@@H](C)C(=O)N[C@@H]([C@@H](C)O)C(=O)N1)[C@@H](C)O)C(=O)N1CCC[C@H]1C(=O)N[C@@H](CO)C(=O)N[C@@H](CO)C(=O)N[C@H](C(=O)N[C@@H](CC(N)=O)C(=O)N[C@H](C(=O)NCC(=O)N[C@@H](CO)C(=O)N[C@@H](CCCNC(=N)N)C(=O)N[C@H](C(=O)N[C@@H](Cc1ccc(O)cc1)C(N)=O)[C@@H](C)O)C(C)C)[C@@H](C)O [Example 132] | – | – | – | – | – | – | – | ≥ 200 µM | ≥ 200 µM | ≥ 200 µM | ≥ 200 µM | ≥ 200 µM | ≥ 200 µM | ≥ 200 µM | ≥ 200 µM | 30.9 nM
